In EP1954678B1, “NOVEL NK1 AND NK2 ANTAGONISTS” (Abbott Products GmbH, priority 2005, dated 2007):

Key:
human NK1 receptors = molecular target: T1, human NK1 receptors (Homo sapiens, UniProt P25103); assay: Binding of the test substances to NK1 receptors in vitro ([3H]-Substance P displacement, CHO cell membranes); details: [3H]-Substance P as ligand; membranes of CHO cells expressing the human NK1 receptor; Ki calculated from IC50; read-out: pKi (NK1) (converted)
T1 construct: expressed in transfected cells; host or cells: CHO cells (membrane preparation)
T1 sequence (P25103 whole entry): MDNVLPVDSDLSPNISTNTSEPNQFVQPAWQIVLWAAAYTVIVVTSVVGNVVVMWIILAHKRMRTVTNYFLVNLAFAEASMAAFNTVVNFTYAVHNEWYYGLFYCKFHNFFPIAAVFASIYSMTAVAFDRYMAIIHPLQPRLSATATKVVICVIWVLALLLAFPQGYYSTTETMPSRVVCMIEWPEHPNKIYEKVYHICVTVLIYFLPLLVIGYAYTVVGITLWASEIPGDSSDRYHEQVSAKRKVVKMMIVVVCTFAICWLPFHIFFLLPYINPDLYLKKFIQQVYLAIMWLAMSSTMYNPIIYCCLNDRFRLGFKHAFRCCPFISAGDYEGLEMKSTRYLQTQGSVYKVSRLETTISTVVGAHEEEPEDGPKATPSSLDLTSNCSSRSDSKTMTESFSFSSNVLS
Method: In The Netherlands, the affinity of the test substances to human NK1 receptors was measured in vitro.
The receptor binding studies were performed with [^3H]-Substance P as ligand. For the binding test, different samples of a membrane preparation of CHO cells (= egg cells of the Chinese hamster, Chinese hamster oocytes), which express the human NK1 receptor ("Accession Number" of the associated nucleic acid sequence = M74290; "Accession Number" of the associated protein sequence = P25103; cf. Takeda, Y.; Chou, K. B., Takeda, J.; Sachais, B.S. and Krause, J. E; Biochemical and Biophysical Research Communications, 179(3) (1991) 1232 - 1240), were incubated with a solution of the marked ligand, with the incubation mixtures containing no test substance or additions of different concentrations of test substance. Then, separation of bound and free ligands was performed in each of the samples with the aid of glass-fibre filtration. The fraction remaining in the filter was washed several times with buffer solution and then the radioactivity of the fraction remaining in the filter was measured using a beta scintillation counter.
For the compounds of Examples 1 to 14, that concentration which effects half maximum displacement of the bound ligand was determined as IC50 of the respective test substance. From this, the corresponding inhibition constant (Ki value) of the test substance was calculated, and was stated as the negative common logarithm of the Ki value (= pKi value). The pKi value is a measurement of the affinity of the test substances to human NK1 receptors.

human NK2 receptors = molecular target: T2, human NK2 receptors (Homo sapiens, UniProt P21452); assay: Binding of the test substances to NK2 receptors in vitro ([3H]-SR 48968 displacement, CHO cell membranes); details: [3H]-SR 48968 as ligand; membranes of CHO cells expressing the human NK2 receptor; 90 min incubation; Ki calculated from IC50; read-out: pKi (NK2) (converted)
T2 construct: expressed in transfected cells; host or cells: CHO cells (membrane preparation)
T2 sequence (P21452 1-398): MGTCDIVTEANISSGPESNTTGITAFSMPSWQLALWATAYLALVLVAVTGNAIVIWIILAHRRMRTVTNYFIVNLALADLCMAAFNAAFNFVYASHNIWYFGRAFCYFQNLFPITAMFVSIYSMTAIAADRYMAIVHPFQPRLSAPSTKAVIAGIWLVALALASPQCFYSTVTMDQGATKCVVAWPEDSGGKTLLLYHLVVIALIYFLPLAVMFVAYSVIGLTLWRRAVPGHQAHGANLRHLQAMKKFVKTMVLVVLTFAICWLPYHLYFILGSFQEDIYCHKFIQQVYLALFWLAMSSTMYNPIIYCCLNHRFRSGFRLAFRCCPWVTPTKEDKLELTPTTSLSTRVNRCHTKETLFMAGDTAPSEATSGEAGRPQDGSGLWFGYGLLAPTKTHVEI
Method: The affinity of the test substances to human NK2 receptors was measured in vitro. The ability of the test substances to displace the selective NK2 receptor antagonist SR 48968 (= saredutant) used as reference ligand from its corresponding bond was determined.
The receptor binding studies were carried out with radioactively marked [^3H]-SR 48968 (from Amersham) as ligand. For the binding test, different samples of a membrane preparation of CHO cells (= egg cells of the Chinese hamster, Chinese hamster oocytes), which express the human NK2 receptor (for preparation, see N.P. Gerard et al., Journal of Biological Chemistry 265/33 (1990) 20455-20462), were incubated for 90 minutes (= min.) with a solution of the marked ligand, with the incubation mixtures containing no test substance or additions of different concentrations of test substance. Then in each case the membrane-bound ligands in the samples were separated from free ligands by filtration. The fraction remaining in the filter was washed several times with buffer solution, before its radioactivity was measured using a liquid scintillation counter. That concentration which effects half-maximum displacement of the bound reference ligand was determined as IC50 of the respective test substance. The inhibition constant (Ki value) of the test substance was calculated from the respective IC50 value, and was stated as the negative logarithmised value thereof (pKi).
If several measurements were performed, the average thereof was listed each time. The pKi value is a measurement of the affinity of the test substances to human NK2 receptors.

[1] = molecular target: T3, cloned human NK2 receptors (Homo sapiens, UniProt P21452); assay: Ca2+ measurements using FLIPR for NK2 activity in CHO cells; format: cell-based; details: NKA 10^-7 M as agonist; compound applied 7 min before; pA2 calculated from IC50
T3 construct: expressed in transfected cells
T3 sequence (P21452 1-398): T2 sequence (P21452 1-398)
Description: (§1) The NK receptor is coupled to Gq.
(§2) All steps were done under sterile conditions. […] The results are summarized in table 5: Table 5: pA2 data for NK1 and NK2: […]

[2] = molecular target: T4, cloned human NK1 receptors (Homo sapiens, UniProt P25103); assay: Ca2+ measurements using FLIPR for NK1 activity in CHO cells; format: cell-based; details: substance P 10^-8 M as agonist; compound applied 7 min before; pA2 calculated from IC50
T4 construct: expressed in transfected cells
T4 sequence (P25103 whole entry): as the sequence (P25103 whole entry) above
Description: as §1, §2

Compound	Ki (human NK1 receptors)	Ki (human NK2 receptors)	Kb [1]	Kb [2]	pA2 (NK2) [1]	pA2 (NK1) [2]
CN(C[C@@H](CCN1CCN([C@@H](c2ccco2)[C@H](O)[C@H](O)[C@H](O)CO)CC1)c1ccc(Cl)c(Cl)c1)C(=O)c1cc(C#N)cc2ccccc12 [Compound 3, 3-cyano-N-[(2S)-2-(3,4-dichlorophenyl)-4-{4-[(1R,2S,3S,4R)-1-(2-furyl)-2,3,4,5-tetrahydroxypentyl]piperazin-1-yl}butyl]-N-methyl-1-naphthamide]	1.58 nM	63.1 nM	–	–	–	–
CN(C[C@@H](CCN1CCN(C(c2ccco2)C(O)CO)CC1)c1ccc(Cl)c(Cl)c1)C(=O)c1cc(C#N)cc2ccccc12 (stereo partly drawn) [Compound 14, 3-cyano-N-[(2S)-2-(3,4-dichlorophenyl)-4-{4-[1-(2-furyl)-2,3-dihydroxypropyl]piperazin-1-yl}butyl]-N-methyl-1-naphthamide]	5.01 nM	12.6 nM	3.16 nM	0.398 nM	–	–
COc1ccc([C@@H]([C@H](O)CO)N2CCN(CC[C@H](CN(C)C(=O)c3cc(C#N)cc4ccccc34)c3ccc(Cl)c(Cl)c3)CC2)cc1 [Compound 16, 3-cyano-N-[(2)-2-(3,4-dichlorophenyl)-4-{4-[(1S,2S)-2,3-dihydroxy-1-(4-methoxyohenyl)propyl]piperazin-1-yl}butyl]-N-methyl-1-naphthamide]	–	–	–	–	9,1	9,3
CN(C[C@@H](CCN1CCN([C@@H](c2cc3ccccc3o2)[C@H](O)CO)CC1)c1ccc(Cl)c(Cl)c1)C(=O)c1cc(C#N)cc2ccccc12 [Compound 17, N-[(2S)-4-{4-[(1R,2S)-1-(1-benzofuran-2-yl)-2,3-dihydroxypropyl]piperazin-1-yl}-2-(3,4-dichlorophenyl)butyl]-3-cyano-N-methyl-1-naphthamide]	31.6 nM	3160 nM	20 nM	20 nM	–	–
CN(C[C@@H](CCN1CCN([C@@H](c2ccc3c(c2)OCO3)[C@H](O)CO)CC1)c1ccc(Cl)c(Cl)c1)C(=O)c1cc(C#N)cc2ccccc12 [Compound 21, N-[(2S)-4-{4-[(1S,2S)-1-(1,3-benzodioxol-5-yl)-2,3-dihydroxypropyl]piperazin-1-yl}-2-(3,4-dichlorophenyl)butyl]-3-cyano-N-methyl-1-naphthamide]	2 nM	398 nM	0.316 nM	0.794 nM	–	–
CN(CC(CCN1CCN(C(Cc2ccccc2)C(O)CO)CC1)c1ccc(Cl)c(Cl)c1)C(=O)c1cc(C#N)cc2ccccc12 (stereo not drawn) [Compound 24]	–	–	–	–	7,8	8,1
CC(=O)OC[C@@H](OC(C)=O)[C@H](c1ccco1)N1CCN(CC[C@H](CN(C)C(=O)c2cc(C#N)cc3ccccc23)c2ccc(Cl)c(Cl)c2)CC1 [Compound 27, (2S,3R)-2-(acetyloxy)-3-{4-[(3S)-4-[3-cyano-1-naphthoyl)(methyl)amino]-3-(3,4-dichlorophenyl)butyl]piperazin-1-yl}-3-(2-furyl)propyl acetate]	–	–	–	–	8,1	9,2
CN(C[C@@H](CCN1CCN(C(CO)c2ccco2)CC1)c1ccc(Cl)c(Cl)c1)C(=O)c1cc(C#N)cc2ccccc12 (stereo partly drawn) [Compound 28, 3-cyano-N-[(2S)-2-(3,4-dichlorophenyl)-4-{4-[1-(2-furyl)-2-hydroxyethyl]piperazin-1-yl}butyl]-N-methyl-1-naphthamide]	12.6 nM	50.1 nM	25.1 nM	2 nM	–	–

The next lines start with the values.

Ki (human NK1 receptors)	Ki (human NK2 receptors)	Kb [1]	Kb [2]	pA2 (NK2) [1]	pA2 (NK1) [2]	Compound
2.51 nM	126 nM	–	–	–	–	CN(C[C@@H](CCN1CCN([C@@H](c2ccsc2)[C@H](O)[C@H](O)[C@H](O)CO)CC1)c1ccc(Cl)c(Cl)c1)C(=O)c1cc(C#N)cc2ccccc12 [Compound 4, 3-cyano-N-[(2S)-2-(3,4-dichlorophenyl)-4-{4-[(1S,2S,3S,4R)-2,3,4,5-tetrahydroxy-1-(3-thienyl)pentyl]piperazin-1-yl}butyl]-N-methyl-1-naphthamide]
10 nM	100 nM	–	–	–	–	CN(C[C@@H](CCN1CCN([C@@H](c2ccoc2)[C@H](O)CO)CC1)c1ccc(Cl)c(Cl)c1)C(=O)c1cc(C#N)cc2ccccc12 [Compound 12, 3-cyano-N-[(2S)-2-(3,4-dichlorophenyl)-4-{4-[(1S,2S)-1-(3-furyl)-2,3-dihydroxypropyl]piperazin-1-yl}butyl]-N-methyl-1-naphthamide]
3.16 nM	158 nM	2.51 nM	6.31 nM	–	–	CN(C[C@@H](CCN1CCN([C@@H](c2ccc(Cl)s2)[C@H](O)CO)CC1)c1ccc(Cl)c(Cl)c1)C(=O)c1cc(C#N)cc2ccccc12 [Compound 18, N-[(2S)-4-{4-[(1R,2S)-1-(5-chloro-2-thienyl)-2,3-dihydroxypropyl]piperazin-1-yl}-2-(3,4-dichlorophenyl)butyl]-3-cyano-N-methyl-1-naphthamide]
3.98 nM	1000 nM	3.16 nM	7.94 nM	–	–	CN(C[C@@H](CCN1CCN([C@@H](c2cc3ccccc3s2)[C@H](O)CO)CC1)c1ccc(Cl)c(Cl)c1)C(=O)c1cc(C#N)cc2ccccc12 [Compound 22, N-[(2S)-4-{4-[(1R,2S)-1-(1-benzothien-2-yl)-2,3-dihydroxypropyl]piperazin-1-yl}-2-(3,4-dichlorophenyl)butyl]-3-cyano-N-methyl-1-naphthamide]
7.94 nM	39.8 nM	1 nM	3.16 nM	–	–	CN(C[C@@H](CCN1CCN(C(CO)c2ccco2)CC1)c1ccc(Cl)c(Cl)c1)C(=O)c1cc(C#N)cc2ccccc12 (stereo partly drawn) [Compound 25, 3-cyano-N-[(2S)-2-(3,4-dichlorophenyl)-4-{4-[1-(2-furyl)-2-hydroxyethyl]piperazin-1-yl}butyl]-N-methyl-1-naphthamide]
–	–	–	–	7,4	8,0	CC(=O)OCC(O)C(Cc1ccccc1)N1CCN(CCC(CN(C)C(=O)c2cc(C#N)cc3ccccc23)c2ccc(Cl)c(Cl)c2)CC1 (stereo not drawn) [Compound 26]
